According to patent publication US20260125675A1, “DOWNREGULATING TROLLS USING NOVEL ANTISENSE OLIGONUCLEOTIDES TO OVERCOME RESISTANCE TO CHEMOTHERAPY” (H. LEE MOFFITT CANCER CENTER AND RESEARCH INSTITUTE, INC., priority 2022, published 2026):

Assays:
Assay type in all cases: cell-based, human
Conditions in all cases: treated 72 hr
AKT = experiment: Western blot of phosphorylated and total AKT in drug-treated CAID cells
Procedure: (§1) 195. We were interested in determining the effect of treatment with adriamycin, docetaxel, or paclitaxel on the levels of TOLL-2 and TROLL-3. qRT-PCR was performed for TROLL-2 and TROLL-3 in CAID cells treated with the indicated drugs for 72 hr. Western blosts of the levels of phosphorylated and total AKT, and relative quantification were determined (FIG. 1). […] We next observed that the levels of TROLL-3 are higher in lung adenocarcinoma (LUAD) with EGFR mutations with EGFR mutations in 2 distinct cohorts of patients (the TCGA cohort and Moffitt cohort) (FIGS. 2 and 3). Next we looked at the association association between pAKT levels and resistance to treatment in a panel of LUAD cell lines. Western blot levels of phosphorylated and total AKT in the indicated cell lines. Red boxes denote cell lines where PAKT levels are higher in the cells resistant to the indicated inhibitors compared to the respective parental cells (FIG. 4). Such increase in pAKT levels is associated with the resistance to anti-cancer treatment. To see the effect of TROLL-2 or TROLL-3 downregulation of pAKT levels in LUAD cells, we prefromed western blosts of the lvels of phosphorylated and total AKT in parental and KRASi resistant or EGFRi resistant cells using untreated on siRNA knockdown of TROLL-2 or TROLL-3 (FIGS. 5 and 6). We observed that downregulation of TROLL-2 or TROLL-3 reduces pAKT levels in KRASi and EGFRi resistant LUAD cells. Next we identified antisense LNA GapmeRs targeting TROLL-2 and TROLL-3 (50 nM-2 experiments). We used […]-PCR (qRT-PCR) for TROLL-2 and TROLL-3 in CAID cells treated with the indicated Antisense LNA GapmeRs for 48 hr. The following reagents were purchased from Qiagen: negative control=LG00000002-DDB, TROLL-2 A=LG00807687-DDB. TROLL-2 B=LG00807688-DDB, TROLL-2 C=LG00807689-DDB. TROLL-2 D=LG00807691-DDB, TROLL-2 E=LG00807694-DDB, TROLL-3 A=LG00807697-DDB, TROLL-3 B=LG00807698-DDB, TROLL-3 C=LG00807699-DDB, TROLL-3 D=LG00807700-DDB, and TROLL-3 E=LG00807701-DDB (FIG. 7). […]

TROLL-2 = experiment: qRT-PCR for TROLL-2 in CAID cells treated with the indicated drugs
Procedure: as §1

TROLL-3 = experiment: qRT-PCR for TROLL-3 in CAID cells treated with the indicated drugs
Procedure: as §1

Structure (SMILES) | AKT pathway activation (phosphorylated and total AKT, western blot) (AKT) | levels of TROLL-2 (qRT-PCR) (TROLL-2) | levels of TROLL-3 (qRT-PCR) (TROLL-3)
COc1cccc2c1C(=O)c1c(O)c3c(c(O)c1C2=O)C[C@@](O)(C(=O)CO)C[C@@H]3O[C@H]1C[C@H](N)[C@H](O)[C@H](C)O1 [adriamycin] | activation of the AKT pathway | increases | increases
CC(=O)O[C@H]1C(=O)[C@@]2(C)[C@H]([C@H](OC(=O)c3ccccc3)[C@]3(O)C[C@H](OC(=O)[C@H](O)[C@@H](NC(=O)c4ccccc4)c4ccccc4)C(C)=C1C3(C)C)[C@]1(OC(C)=O)CO[C@@H]1C[C@@H]2O [paclitaxel] | activation of the AKT pathway | increases | increases
CC(=O)O[C@@]12CO[C@@H]1C[C@H](O)[C@@]1(C)C(=O)[C@H](O)C3=C(C)[C@@H](OC(=O)[C@H](O)[C@@H](NC(=O)OC(C)(C)C)c4ccccc4)C[C@@](O)([C@@H](OC(=O)c4ccccc4)[C@H]21)C3(C)C [docetaxel] | activation of the AKT pathway | increases | increases
